The results in this text go back to US20240190880A1 (THE REGENTS OF THE UNIVERSITY OF MICHIGAN, priority 2021, published 2024).

The target of the first test is T1, ER (Homo sapiens, UniProt P03372).
T1 construct: host or cells: T47D and MCF7 human breast cancer cells
T1 sequence (P03372 1-595): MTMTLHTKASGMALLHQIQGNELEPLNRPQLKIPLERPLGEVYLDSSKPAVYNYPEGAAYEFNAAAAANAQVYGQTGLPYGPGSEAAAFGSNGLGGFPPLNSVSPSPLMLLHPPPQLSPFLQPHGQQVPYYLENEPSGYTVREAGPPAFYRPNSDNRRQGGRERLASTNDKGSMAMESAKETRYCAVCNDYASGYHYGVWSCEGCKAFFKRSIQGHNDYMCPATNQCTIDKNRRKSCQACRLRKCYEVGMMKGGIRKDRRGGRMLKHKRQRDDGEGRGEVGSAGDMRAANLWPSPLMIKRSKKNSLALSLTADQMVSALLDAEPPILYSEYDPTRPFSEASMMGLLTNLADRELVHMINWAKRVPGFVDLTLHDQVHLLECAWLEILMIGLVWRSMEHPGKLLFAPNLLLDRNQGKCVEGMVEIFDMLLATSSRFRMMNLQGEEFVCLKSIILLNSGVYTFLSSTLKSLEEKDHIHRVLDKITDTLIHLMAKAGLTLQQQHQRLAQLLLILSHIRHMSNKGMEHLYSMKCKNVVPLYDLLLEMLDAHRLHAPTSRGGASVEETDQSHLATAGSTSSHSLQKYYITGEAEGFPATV
Put plainly: ER degradation activity, in-cell western blot analysis in T47D cells. Particulars: 16 hours, Table A does not say which cell line (T47D or MCF7), read-out: Potency (DC50). The format is cell-based. The gist of the method:
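T47D cells grown in DMEM with 10% FBS were treated with compounds for 16 hours at 0.5% DMSO final. ER was detected by in-cell western using 680/800 near-infrared secondary antibodies. Residual ER is given as percent of untreated and DMSO-treated wells set to 100%.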
For the molecule `C[C@@H]1Cc2cc(O)ccc2[C@@H](c2c(F)cc(N3CCN(C(=O)[C@H]4CC[C@@H](N5Cc6cc7c(cc6C5)C(=O)N(C5CCC(=O)NC5=O)C7=O)CC4)CC3)cc2F)N1CC(F)F` (mixture of isomers) [E 352, Rac-6-((1R,4s)-4-(4-(4-((1S,3R)-2-(2,2-difluoroethyl)-6-hydroxy-3-methyl-1,2,3,4-tetrahydroisoquinolin-1-yl)-3,5-difluorophenyl)piperazine-1-carbonyl)cyclohexyl)-2-(2,6-dioxopiperidin-3-yl)-6,7-dihydropyrrolo[3,4-f]isoindole-1,3(2H,5H)-dione], the half-maximal degradation concentration (DC50) is more than 100 nM.
Still for that read-out and setting: to `C[C@@H]1Cc2c([nH]c3ccccc23)[C@@H](c2c(F)cc(N3CC(CC(=O)N4Cc5cc6c(cc5C4)C(=O)N(C4CCC(=O)NC4=O)C6)C3)cc2F)N1CC(F)F` (stereo partly drawn) [E 102, 3-(6-(2-(1-(4-((1R,3R)-2-(2,2-difluoroethyl)-3-methyl-2,3,4,9-tetrahydro-1H-pyrido[3,4-b]indol-1-yl)-3,5-difluorophenyl)azetidin-3-yl)acetyl)-1-oxo-3,5,6,7-tetrahydropyrrolo[3,4-f]isoindol-2(1H)-yl)piperidine-2,6-dione] belongs more than 100 nM; to `C[C@@H]1Cc2c([nH]c3ccccc23)[C@@H](c2c(F)cc(N3CCC(C(=O)N4CCC(CN5Cc6cc7c(cc6C5)C(=O)N(C5CCC(=O)NC5=O)C7=O)CC4)CC3)cc2F)N1CC(F)F` (stereo partly drawn) [E 113, 6-((1-(1-(4-((1R,3R)-2-(2,2-difluoroethyl)-3-methyl-2,3,4,9-tetrahydro-1H-pyrido[3,4-b]indol-1-yl)-3,5-difluorophenyl)piperidine-4-carbonyl)piperidin-4-yl)methyl)-2-(2,6-dioxopiperidin-3-yl)-6,7-dihydropyrrolo[3,4-f]isoindole-1,3(2H,5H)-dione], 10 to 100 nM; to `C[C@H]1Cc2c([nH]c3ccccc23)[C@H](c2c(F)cc(N3CC4(CCN(C(=O)CN5Cc6cc7c(cc6C5)C(=O)N(C5CCC(=O)NC5=O)C7=O)CC4)C3)cc2F)N1CC(F)F` (stereo in doubt) [E 84, 6-(2-(2-(4-((1S,3S)-2-(2,2-difluoroethyl)-3-methyl-2,3,4,9-tetrahydro-1H-pyrido[3,4-b]indol-1-yl)-3,5-difluorophenyl)-2,7-diazaspiro[3.5]nonan-7-yl)-2-oxoethyl)-2-(2,6-dioxopiperidin-3-yl)-6,7-dihydropyrrolo[3,4-f]isoindole-1,3(2H,5H)-dione], less than 10 nM.
For `O=C1CCC(N2C(=O)c3cc4c(cc3C2=O)CN(CC2CCN(c3ccc([C@@H]5c6ccc(O)cc6CC[C@@H]5c5ccccc5)cc3)CC2)C4)C(=O)N1` (mixture of isomers) [E 2, Rac-2-(2,6-dioxopiperidin-3-yl)-6-((1-(4-((1R,2S)-6-hydroxy-2-phenyl-1,2,3,4-tetrahydronaphthalen-1-yl)phenyl)piperidin-4-yl)methyl)-6,7-dihydropyrrolo[3,4-f]isoindole-1,3(2H,5H)-dione], the DC50 lay within 10 to 100 nM.
Same read-out and setting: to `C[C@@H]1Cc2c([nH]c3ccccc23)[C@@H](c2c(F)cc(C3CCN(C(=O)[C@H]4CC[C@@H](N5Cc6cc7c(cc6C5)C(=O)N(C5CCC(=O)NC5=O)C7=O)CC4)CC3)cc2F)N1CC(F)F` (stereo partly drawn) [E 392, 6-((1S,4s)-4-(4-(4-((1R,3R)-2-(2,2-difluoroethyl)-3-methyl-2,3,4,9-tetrahydro-1H-pyrido[3,4-b]indol-1-yl)-3,5-difluorophenyl)piperidine-1-carbonyl)cyclohexyl)-2-(2,6-dioxopiperidin-3-yl)-6,7-dihydropyrrolo[3,4-f]isoindole-1,3(2H,5H)-dione] belongs 10 to 100 nM.
The same measure, in the same setting: to `CN(c1ccc([C@H]2c3ccc(O)cc3CC[C@H]2c2ccccc2)cc1)C1CN([C@H]2CC[C@H](C(=O)N3Cc4cc5c(cc4C3)C(=O)N(C3CCC(=O)NC3=O)C5=O)CC2)C1` (stereo partly drawn) [E 394, 2-(2,6-dioxopiperidin-3-yl)-6-((1S,4r)-4-(3-((4-((1S,2R)-6-hydroxy-2-phenyl-1,2,3,4-tetrahydronaphthalen-1-yl)phenyl)(methyl)amino)azetidin-1-yl)cyclohexane-1-carbonyl)-6,7-dihydropyrrolo[3,4-f]isoindole-1,3(2H,5H)-dione] belongs more than 100 nM; to `O=C1CCC(N2C(=O)c3cc4c(cc3C2=O)CN(C(=O)CN2CCC3(CC2)CN(c2ccc([C@@H]5c6ccc(O)cc6CC[C@@H]5c5ccccc5)cc2)C3)C4)C(=O)N1` (mixture of isomers) [E 150, Rac-2-(2,6-dioxopiperidin-3-yl)-6-(2-(2-(4-((1R,2S)-6-hydroxy-2-phenyl-1,2,3,4-tetrahydronaphthalen-1-yl)phenyl)-2,7-diazaspiro[3.5]nonan-7-yl)acetyl)-6,7-dihydropyrrolo[3,4-f]isoindole-1,3(2H,5H)-dione], more than 100 nM; to `O=C1CCC(N2Cc3cc4c(cc3C2=O)CN(C(=O)CN2CC3(C2)CN(c2ccc(C5=C(c6ccc(F)cc6)CCCc6cc(O)ccc65)cc2)C3)C4)C(=O)N1` (stereo not shown) [E 48], 10 to 100 nM.
Still for that read-out and setting: under `O=C1CCC(N2C(=O)c3cc4c(cc3C2=O)CN(C(=O)CN2CCC3(CC2)CCN(c2ccc(C(=C(CCCl)c5ccccc5)c5ccc(B(O)O)cc5)cc2)CC3)C4)C(=O)N1` (stereo not shown) [E 198, (4-(4-chloro-1-(4-(9-(2-(6-(2,6-dioxopiperidin-3-yl)-5,7-dioxo-3,5,6,7-tetrahydropyrrolo[3,4-f]isoindol-2(1H)-yl)-2-oxoethyl)-3,9-diazaspiro[5.5]undecan-3-yl)phenyl)-2-phenylbut-1-en-1-yl)phenyl)boronic acid] stands 10 to 100 nM; under `O=C1CCC(N2C(=O)c3cc4c(cc3C2=O)CN(CC2CCC(NC3CN(c5ccc([C@@H]6c7ccc(O)cc7CC[C@@H]6c6ccccc6)cc5)C3)CC2)C4)C(=O)N1` (stereo partly drawn) [E 337, 2-(2,6-dioxopiperidin-3-yl)-6-((4-((1-(4-((1R,2S)-6-hydroxy-2-phenyl-1,2,3,4-tetrahydronaphthalen-1-yl)phenyl)azetidin-3-yl)amino)cyclohexyl)methyl)-6,7-dihydropyrrolo[3,4-f]isoindole-1,3(2H,5H)-dione], more than 100 nM.
Take `O=C1CCC(N2C(=O)c3cc4c(cc3C2=O)CN(C2CN(C(=O)C3CCN(c5ccc([C@@H]6c7ccc(O)cc7CC[C@@H]6c6ccccc6)cc5)CC3)C2)C4)C(=O)N1` (mixture of isomers) [E 15, Rac-2-(2,6-dioxopiperidin-3-yl)-6-(1-(1-(4-((1R,2S)-6-hydroxy-2-phenyl-1,2,3,4-tetrahydronaphthalen-1-yl)phenyl)piperidine-4-carbonyl)azetidin-3-yl)-6,7-dihydropyrrolo[3,4-f]isoindole-1,3(2H,5H)-dione]: the half-maximal degradation concentration (DC50) is 10 to 100 nM.
Same read-out and setting: to `C[C@@H]1Cc2c([nH]c3ccccc23)[C@@H](c2c(F)cc(N3CC4(CCN(C(=O)CN5Cc6cc7c(cc6C5)C(=O)N(C5CCC(=O)NC5=O)C7)C4)C3)cc2F)N1CC(F)F` (stereo partly drawn) [E 66, 3-(6-(2-(2-(4-((1R,3R)-2-(2,2-difluoroethyl)-3-methyl-2,3,4,9-tetrahydro-1H-pyrido[3,4-b]indol-1-yl)-3,5-difluorophenyl)-2,6-diazaspiro[3.4]octan-6-yl)-2-oxoethyl)-1-oxo-3,5,6,7-tetrahydropyrrolo[3,4-f]isoindol-2(1H)-yl)piperidine-2,6-dione] belongs less than 10 nM.
Take `C[C@@H]1Cc2c([nH]c3ccccc23)[C@@H](c2c(F)cc(N3CCC4(CCN(CC(=O)N5Cc6cc7c(cc6C5)C(=O)N(C5CCC(=O)NC5=O)C7)CC4)C3)cc2F)N1CC(F)F` (stereo partly drawn) [E 108, 3-(6-(2-(2-(4-((1R,3R)-2-(2,2-difluoroethyl)-3-methyl-2,3,4,9-tetrahydro-1H-pyrido[3,4-b]indol-1-yl)-3,5-difluorophenyl)-2,8-diazaspiro[4.5]decan-8-yl)acetyl)-1-oxo-3,5,6,7-tetrahydropyrrolo[3,4-f]isoindol-2(1H)-yl)piperidine-2,6-dione]: the DC50 was less than 10 nM.

The same test, now with this note: compounds 16 hours, Table A does not say whether T47D or MCF7, read-out: Potency (DC50).
For `O=C1CCC(N2C(=O)c3cc4c(cc3C2=O)CN(CC(=O)N2CCC3(CC2)CN(C(=O)c2ccc([C@@H]5c6ccc(O)cc6CC[C@@H]5c5ccccc5)cc2)C3)C4)C(=O)N1` (stereo partly drawn) [E 496, 2-(2,6-dioxopiperidin-3-yl)-6-(2-(2-(4-((1R,2S)-6-hydroxy-2-phenyl-1,2,3,4-tetrahydronaphthalen-1-yl)benzoyl)-2,7-diazaspiro[3.5]nonan-7-yl)-2-oxoethyl)-6,7-dihydropyrrolo[3,4-f]isoindole-1,3(2H,5H)-dione], the DC50 is more than 100 nM.
For `C[C@@H]1Cc2c([nH]c3ccccc23)[C@@H](c2c(F)cc(C3=CCC(C(=O)N4CCC(N5Cc6cc7c(cc6C5)C(=O)N(C5CCC(=O)NC5=O)C7=O)CC4)CC3)cc2F)N1CC1(F)CC1` (stereo partly drawn) [E 485, 6-(1-(3′,5′-difluoro-4′-((1R,3R)-2-((1-fluorocyclopropyl)methyl)-3-methyl-2,3,4,9-tetrahydro-1H-pyrido[3,4-b]indol-1-yl)-2,3,4,5-tetrahydro-[1,1′-biphenyl]-4-carbonyl)piperidin-4-yl)-2-(2,6-dioxopiperidin-3-yl)-6,7-dihydropyrrolo[3,4-f]isoindole-1,3(2H,5H)-dione], the DC50 is more than 100 nM.
